Results from US6432434B1, “Treatment of and/or prophylaxis against brain and spinal cord injury” (The United States of America as represented by the …, priority 1999, dated 2002).
Where two headings read alike, the source gives them in different places.

Key:
[1] = tested on: rats injected intrathecally with dynorphin A; experiment: Dynorphin A-induced paralysis in rats, neurological score; assay type: in vivo, rat; conditions: n = 9, 5 μmoles DHL in DMSO intrathecally
Experimental: Rats were injected with […] of dynorphin A in combination with DMSO (vehicle only) or dynorphin A (Dny) with 5 μmoles of dihydrolipoate in DMSO. The DMSO (control) and the DMSO with dihydrolipoate (DHL/DMSO) were administered as 2 hour pretreatment before administration of the dynorphin A and as cotreatment with dynorphin A. All rats were flaccidly paralyzed 10 minutes following dynorphin a injections. All injections were administered intrathecally.

[2] = tested on: ischemia-reperfusion injury; conditions: rat; cited from earlier work
[3] = man, cited from earlier work
[4] = tested on: NMDA and malonic acid lesions of striatum; conditions: rats; cited from earlier work
[5] = tested on: ischemia-reperfusion injury; conditions: gerbil; cited from earlier work
[6] = 2 hrs, pretreatment and cotreatment with dynorphin A
[7] = 24 hrs, pretreatment and cotreatment with dynorphin A

Row | SMILES | Number of animals with neurological score 4 (normal) ([1]; 2 hrs, 2 hour pretreatment and cotreatment with 20 μmoles dynorphin A, 4 normal, 0 flaccid paralysis) | Number of animals with neurological score 0 (flaccid paralysis) [1, 6] | Number of animals with neurological score 1 [1, 6] | Number of animals with neurological score 2 [1, 6] | Number of animals with neurological score 3 [1, 6] | Number of animals with neurological score 1 [1, 7] | Number of animals with neurological score 3 [1, 7] | Number of animals with neurological score 4 (normal) [1, 7] | Neuroprotection against ischemia-reperfusion injury [2] | Clinical safety / tolerability [3] | Clinical safety / tolerability ([3]; listed as αLA) | Effect against NMDA lesions of striatum [4] | Effect against malonic acid lesions of striatum [4] | Neuroprotection against ischemia-reperfusion injury [5]
1 | O=C(O)CCCC[C@@H](S)CCS (racemic) [DHL, dihydrolipoic acid] | 2 | 1 | 1 | 2 | 3 | 2 | 3 | 4 |  |  |  |  |  | 
2 | O=C(O)CCCCC1CCSS1 (stereo not drawn) [Alpha lipoic acid] |  |  |  |  |  |  |  |  | neuroprotective | clinically safe | well tolerated | effective | effective | neuroprotective
